The target of this test is T1, human PAH with the R408W mutation (A375 R408W cells) (Homo sapiens, UniProt P00439, R408W).
T1 construct: expressed in transfected cells
T1 sequence (P00439 1-452 R408W): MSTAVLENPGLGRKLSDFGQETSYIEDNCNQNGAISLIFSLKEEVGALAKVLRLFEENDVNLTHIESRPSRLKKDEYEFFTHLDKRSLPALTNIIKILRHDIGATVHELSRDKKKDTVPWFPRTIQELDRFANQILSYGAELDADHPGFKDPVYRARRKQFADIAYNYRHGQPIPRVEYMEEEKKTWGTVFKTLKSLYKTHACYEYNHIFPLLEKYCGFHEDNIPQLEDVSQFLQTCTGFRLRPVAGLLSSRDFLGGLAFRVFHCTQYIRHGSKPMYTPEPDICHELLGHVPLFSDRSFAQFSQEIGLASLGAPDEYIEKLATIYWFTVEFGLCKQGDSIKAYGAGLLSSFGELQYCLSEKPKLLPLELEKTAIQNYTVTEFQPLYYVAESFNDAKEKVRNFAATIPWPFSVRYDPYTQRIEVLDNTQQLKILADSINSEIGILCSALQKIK
Description: Cell Based Phenylalanine Flux Assay. Conditions: A375 R408W cells; 24 hrs with compound, then 20 μM sepiapterin and 800 μM 13C9,15N-Phenylalanine for 4 hours; 13C-Tyrosine by LC-MS; average where tested multiple times. The gist of the method: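 Stable R408W PAH A375 cells: 24 h compound pretreatment in duplicate, then 4 h with 800 μM isotope-labelled Phe and 20 μM sepiapterin. Labelled Tyr output by LC-MS; AC50 averaged where repeated.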
For the compound `Cc1ccc2nc([C@@H]3c4nc[nH]c4CCN3C(=O)c3nnc(-c4cnn(C(F)F)c4)o3)oc2c1` [Example 681, (S)-(5-(1-(difluoromethyl)-1H-pyrazol-4-yl)-1,3,4-oxadiazol-2-yl)(4-(6-methylbenzo[d]oxazol-2-yl)-6,7-dihydro-1H-imidazo[4,5-c]pyridin-5(4H)-yl)methanone], the AC50 fell in the range of 500 to 1000 nM. `Cc1ccc2nc([C@H]3c4nc[nH]c4CCN3C(=O)c3nnc(-c4cnn(C(F)F)c4)o3)oc2c1` [Example 682, (R)-(5-(1-(difluoromethyl)-1H-pyrazol-4-yl)-1,3,4-oxadiazol-2-yl)(4-(6-methylbenzo[d]oxazol-2-yl)-6,7-dihydro-1H-imidazo[4,5-c]pyridin-5(4H)-yl)methanone]: the AC50 was at least 5000 nM. Under `Cn1nc(C(F)(F)F)nc1C(=O)N1CCc2[nH]cnc2[C@H]1c1nc2ccccc2o1` [Example 683, (S)-(4-(benzo[d]oxazol-2-yl)-6,7-dihydro-1H-imidazo[4,5-c]pyridin-5(4H)-yl)(1-methyl-3-(trifluoromethyl)-1H-1,2,4-triazol-5-yl)methanone] stands 1000 to 5000 nM; under `Cn1nc(C(F)(F)F)nc1C(=O)N1CCc2[nH]cnc2[C@@H]1c1nc2ccccc2o1` [Example 684, (R)-(4-(benzo[d]oxazol-2-yl)-6,7-dihydro-1H-imidazo[4,5-c]pyridin-5(4H)-yl)(1-methyl-3-(trifluoromethyl)-1H-1,2,4-triazol-5-yl)methanone], 1000 to 5000 nM. Consider `Cc1cccc2nc([C@@H]3c4nc[nH]c4CCN3C(=O)c3nc(C(F)(F)F)nn3C)oc12` [Example 685, (S)-(1-methyl-3-(trifluoromethyl)-1H-1,2,4-triazol-5-yl)(4-(7-methylbenzo[d]oxazol-2-yl)-6,7-dihydro-1H-imidazo[4,5-c]pyridin-5(4H)-yl)methanone], for which the AC50 is 500 to 1000 nM. Turning to `Cc1cccc2nc([C@H]3c4nc[nH]c4CCN3C(=O)c3nc(C(F)(F)F)nn3C)oc12` [Example 686, (R)-(1-methyl-3-(trifluoromethyl)-1H-1,2,4-triazol-5-yl)(4-(7-methylbenzo[d]oxazol-2-yl)-6,7-dihydro-1H-imidazo[4,5-c]pyridin-5(4H)-yl)methanone], the AC50 fell in the range of 1000 to 5000 nM. As for `Cn1cncc1-c1nc(C(F)F)c(C(=O)N2CCc3[nH]cnc3[C@H]2c2nc3cc(F)ccc3o2)o1` [Example 687, (S)-(4-(difluoromethyl)-2-(1-methyl-1H-imidazol-5-yl)oxazol-5-yl)(4-(5-fluorobenzo[d]oxazol-2-yl)-6,7-dihydro-1H-imidazo[4,5-c]pyridin-5(4H)-yl)methanone], the AC50 lay in the range of 500 to 1000 nM.

On to `Cn1cncc1-c1nc(C(F)F)c(C(=O)N2CCc3[nH]cnc3[C@@H]2c2nc3cc(F)ccc3o2)o1` [Example 688, (R)-(4-(difluoromethyl)-2-(1-methyl-1H-imidazol-5-yl)oxazol-5-yl)(4-(5-fluorobenzo[d]oxazol-2-yl)-6,7-dihydro-1H-imidazo[4,5-c]pyridin-5(4H)-yl)methanone], for which the AC50 lay within 1000 to 5000 nM. As for `O=C(c1oc(C2(O)CCC2)nc1C(F)F)N1CCc2[nH]cnc2[C@H]1c1nc2cc(F)ccc2o1` [Example 689, (S)-(4-(difluoromethyl)-2-(1-hydroxycyclobutyl)oxazol-5-yl)(4-(5-fluorobenzo[d]oxazol-2-yl)-6,7-dihydro-1H-imidazo[4,5-c]pyridin-5(4H)-yl)methanone], the AC50 is at most 500 nM.

For the compound `O=C(c1oc(C2(O)CCC2)nc1C(F)F)N1CCc2[nH]cnc2[C@@H]1c1nc2cc(F)ccc2o1` [Example 690, (R)-(4-(difluoromethyl)-2-(1-hydroxycyclobutyl)oxazol-5-yl)(4-(5-fluorobenzo[d]oxazol-2-yl)-6,7-dihydro-1H-imidazo[4,5-c]pyridin-5(4H)-yl)methanone], the AC50 is 1000 to 5000 nM. Take `Cn1cncc1-c1nc(C(F)F)c(C(=O)N2CCc3[nH]cnc3[C@@H]2c2nc3cccc(F)c3o2)o1` [Example 691, (R)-(4-(difluoromethyl)-2-(1-methyl-1H-imidazol-5-yl)oxazol-5-yl)(4-(7-fluorobenzo[d]oxazol-2-yl)-6,7-dihydro-1H-imidazo[4,5-c]pyridin-5(4H)-yl)methanone]: the AC50 fell in the range of 500 to 1000 nM. In the case of `Cn1cncc1-c1nc(C(F)F)c(C(=O)N2CCc3[nH]cnc3[C@H]2c2nc3cccc(F)c3o2)o1` [Example 692, (S)-(4-(difluoromethyl)-2-(1-methyl-1H-imidazol-5-yl)oxazol-5-yl)(4-(7-fluorobenzo[d]oxazol-2-yl)-6,7-dihydro-1H-imidazo[4,5-c]pyridin-5(4H)-yl)methanone], the half-maximal activity concentration (AC50) was at most 500 nM. For the compound `O=C(c1oc(-c2cnccn2)nc1C(F)F)N1CCc2[nH]cnc2[C@H]1c1nc2cccc(F)c2o1` [Example 693, (S)-(4-(difluoromethyl)-2-(pyrazin-2-yl)oxazol-5-yl)(4-(7-fluorobenzo[d]oxazol-2-yl)-6,7-dihydro-1H-imidazo[4,5-c]pyridin-5(4H)-yl)methanone], the AC50 is at most 500 nM. Take `O=C(c1oc(-c2cnccn2)nc1C(F)F)N1CCc2[nH]cnc2[C@@H]1c1nc2cccc(F)c2o1` [Example 694, (R)-(4-(difluoromethyl)-2-(pyrazin-2-yl)oxazol-5-yl)(4-(7-fluorobenzo[d]oxazol-2-yl)-6,7-dihydro-1H-imidazo[4,5-c]pyridin-5(4H)-yl)methanone]: the AC50 was at most 500 nM. To `Cc1ccc2oc([C@@H]3c4nc[nH]c4CCN3C(=O)c3nnc(-c4ccn(C(F)F)n4)o3)nc2c1` [Example 695, (S)-(5-(1-(difluoromethyl)-1H-pyrazol-3-yl)-1,3,4-oxadiazol-2-yl)(4-(5-methylbenzo[d]oxazol-2-yl)-6,7-dihydro-1H-imidazo[4,5-c]pyridin-5(4H)-yl)methanone] belongs at most 500 nM. For the compound `Cc1ccc2oc([C@H]3c4nc[nH]c4CCN3C(=O)c3nnc(-c4ccn(C(F)F)n4)o3)nc2c1` [Example 696, (R)-(5-(1-(difluoromethyl)-1H-pyrazol-3-yl)-1,3,4-oxadiazol-2-yl)(4-(5-methylbenzo[d]oxazol-2-yl)-6,7-dihydro-1H-imidazo[4,5-c]pyridin-5(4H)-yl)methanone], the AC50 was in the range of 1000 to 5000 nM. Turning to `COc1cccc2nc([C@@H]3c4nc[nH]c4CCN3C(=O)c3nc(C(F)(F)F)nn3C)oc12` [Example 697, (S)-(4-(7-methoxybenzo[d]oxazol-2-yl)-6,7-dihydro-1H-imidazo[4,5-c]pyridin-5(4H)-yl)(1-methyl-3-(trifluoromethyl)-1H-1,2,4-triazol-5-yl)methanone], the AC50 lay within 500 to 1000 nM. To `COc1cccc2nc([C@H]3c4nc[nH]c4CCN3C(=O)c3nc(C(F)(F)F)nn3C)oc12` [Example 698, (R)-(4-(7-methoxybenzo[d]oxazol-2-yl)-6,7-dihydro-1H-imidazo[4,5-c]pyridin-5(4H)-yl)(1-methyl-3-(trifluoromethyl)-1H-1,2,4-triazol-5-yl)methanone] belongs 1000 to 5000 nM. To `O=C(c1cnn2cc(N3CCC(O)CC3)ccc12)N1CCc2[nH]cnc2[C@H]1c1nc2cc(F)cc(F)c2o1` [Example 699, (S)-(4-(5,7-difluorobenzo[d]oxazol-2-yl)-6,7-dihydro-1H-imidazo[4,5-c]pyridin-5(4H)-yl)(6-(4-hydroxypiperidin-1-yl)pyrazolo[1,5-a]pyridin-3-yl)methanone] belongs 1000 to 5000 nM; to `O=C(c1cnn2cc(N3CCC(O)CC3)ccc12)N1CCc2[nH]cnc2[C@@H]1c1nc2cc(F)cc(F)c2o1` [Example 700, (R)-(4-(5,7-difluorobenzo[d]oxazol-2-yl)-6,7-dihydro-1H-imidazo[4,5-c]pyridin-5(4H)-yl)(6-(4-hydroxypiperidin-1-yl)pyrazolo[1,5-a]pyridin-3-yl)methanone], at least 5000 nM; to `Cc1cccc2oc([C@@H]3c4nc[nH]c4CCN3C(=O)c3cnn4cc(N5CCC(O)CC5)ccc34)nc12` [Example 701, (S)-(6-(4-hydroxypiperidin-1-yl)pyrazolo[1,5-a]pyridin-3-yl)(4-(4-methylbenzo[d]oxazol-2-yl)-6,7-dihydro-1H-imidazo[4,5-c]pyridin-5(4H)-yl)methanone], at most 500 nM.

As to `Cc1cccc2oc([C@H]3c4nc[nH]c4CCN3C(=O)c3cnn4cc(N5CCC(O)CC5)ccc34)nc12` [Example 702, (R)-(6-(4-hydroxypiperidin-1-yl)pyrazolo[1,5-a]pyridin-3-yl)(4-(4-methylbenzo[d]oxazol-2-yl)-6,7-dihydro-1H-imidazo[4,5-c]pyridin-5(4H)-yl)methanone], the AC50 is at least 5000 nM. As to `Cc1ccc2nc([C@@H]3c4nc[nH]c4CCN3C(=O)c3nnc(-c4ccn(C(F)F)n4)o3)oc2c1` [Example 703, (S)-(5-(1-(difluoromethyl)-1H-pyrazol-3-yl)-1,3,4-oxadiazol-2-yl)(4-(6-methylbenzo[d]oxazol-2-yl)-6,7-dihydro-1H-imidazo[4,5-c]pyridin-5(4H)-yl)methanone], the AC50 was 500 to 1000 nM. Consider `Cc1ccc2nc([C@H]3c4nc[nH]c4CCN3C(=O)c3nnc(-c4ccn(C(F)F)n4)o3)oc2c1` [Example 704, (R)-(5-(1-(difluoromethyl)-1H-pyrazol-3-yl)-1,3,4-oxadiazol-2-yl)(4-(6-methylbenzo[d]oxazol-2-yl)-6,7-dihydro-1H-imidazo[4,5-c]pyridin-5(4H)-yl)methanone], for which the AC50 fell in the range of 1000 to 5000 nM.

The values above are taken from patent US20250171437A1 (Agios Pharmaceuticals,Inc., priority 2022, published 2025).
